Assays:
[1] = Water solubility of salicylic acid by UV-VIS: loaded in γCD-MOF, without additive, or with γCD and KOH; assay type: physicochemical
Method: The dry, loaded CD-MOF samples were then dissolved in 10 mL water and stirred.
All water solubility shown in FIGS. 2-4 below were measured at room temperature.

[2] = cited from earlier work
[3] = 30% loading (150 mg salicylic acid) in a 500 mg γCD-MOF sample, room temperature, FIG. 3 curve 20
[4] = added directly into a solution containing equivalent amounts of γCD and KOH (500 mg sample), room temperature, FIG. 3 curve 22
[5] = un-complexed salicylic acid in the absence of a CD-MOF, room temperature, FIG. 3 curve 21

Row | Compound | percentage of solubilized salicylic acid in 10 mL of water compared with no additive ([1]; 100 mg CD-MOF sample, loading percentage range of about 25-500%, FIG. 2 curve 10 vs curve 11) | amount of salicylic acid solubilized in 10 mL of water (maximum reached) ([1]; 500 mg CD-MOF sample used as intermediate, room temperature, FIG. 4 curve 31) | percentage of solubilized salicylic acid in 10 mL of water compared with no additive and with γCD and KOH ([1]; 500 mg CD-MOF sample, loading percentage 10-100%, FIG. 3 curve 20 vs curves 21 and 22) | amount of salicylic acid solubilized in 10 mL of water [1, 3] | percentage of solubilized salicylic acid in 10 mL of water [1, 3] | maximum amount of salicylic acid dissolved in 10 mL of water ([1]; absence of any additive, room temperature, FIG. 4 curve 33) | amount of salicylic acid solubilized in 10 mL of water [1, 4] | percentage of solubilized salicylic acid in 10 mL of water [1, 4] | amount of salicylic acid solubilized in 10 mL of water [1, 5] | percentage of solubilized salicylic acid in 10 mL of water [1, 5] | solubility in water [2]
1 | O=C(O)c1ccccc1O [salicylic acid] | higher | up to 110 mg | significantly higher | about 103 mg | about 69% | about 20 mg | about 58.5 mg | approximately 39% | about 20 mg | approximately 13% | –
2 | OC[C@H]1O[C@@H]2O[C@H]3[C@H](O)[C@@H](O)[C@@H](O[C@H]4[C@H](O)[C@@H](O)[C@@H](O[C@H]5[C@H](O)[C@@H](O)[C@@H](O[C@H]6[C@H](O)[C@@H](O)[C@@H](O[C@H]7[C@H](O)[C@@H](O)[C@@H](O[C@H]1[C@H](O)[C@H]2O)O[C@@H]7CO)O[C@@H]6CO)O[C@@H]5CO)O[C@@H]4CO)O[C@@H]3CO [α-CD, α cyclodextrin] | – | – | – | – | – | – | – | – | – | – | about 145 mg/mL
